Measurements taken from patent US8680054B2, “Suspension type topical formulations comprising cyclic depsipeptide” (Novartis AG, priority 2011, dated 2014).

Key:
[1] = Solubility of the compound of formula (II); type: physicochemical
[2] = Stability of the compound of formula (II) in hydrophilic environment; type: physicochemical

CC[C@H](C)[C@@H]1NC(=O)[C@H](Cc2ccc(O)cc2)N(C)C(=O)[C@H]([C@@H](C)CC)N2C(=O)[C@H](CC[C@H]2O)NC(=O)[C@H](CC(C)C)NC(=O)[C@@H](NC(=O)[C@H](CCC(N)=O)NC(=O)C(C)C)[C@@H](C)OC1=O [compound of formula (II)]
solubility in lipophilic excipients ([1]; lipophilic excipients): low solubility
solubility in polar organic solvents ([1]; polar organic solvents): good solubility
solubility in water and aqueous buffers ([1]; water and aqueous buffers): moderate solubility
stability in the presence of water ([2]; presence of water): subject to hydrolysis
stability in a hydrophilic environment ([2]; water and polar organic solvents/co-solvents): tendency to degradeation
